# Results: paper PMC5684143, “New melanocortin-like peptide of E. coli can suppress inflammation via the mammalian melanocortin-1 receptor (MC1R): possible endocrine-like function for microbes of the gut” (NPJ Biofilms and Microbiomes, 2017)
# Legend:
# RAW 264.7 cells [1] = assay: LPS-induced TNF release by RAW 264.7 cells; format: cell-based, murine; conditions: LPS 10 ng/ml; peptides 10^-12 M; agouti 10-10^5 pM
# Procedure: (§1) Murine macrophage-like RAW 264.7 cells were obtained from American Type Culture Collection, and were grown in Dulbecco’s Modified Eagle’s Medium (DMEM, Life Technologies) containing 10% (vol/vol) heat-inactivated fetal bovine serum (FBS, Hyclone Lab. Inc.), penicillin 100 U/ml, and streptomycin 100 μg/ml (BioWhittaker Inc.). Cells were suspended in medium and incubated in 24-well or 48-well tissue-culture plates overnight in a humidified incubator (37 °C, 5% CO2). Growth medium was removed and replaced by Opti-MEM I serum-free medium (Life Technologies) overnight. In the experiments, cell monolayers were stimulated with HMGB1 or LPS, in the absence or presence of MECO-1 or alpha-MSH; cell-free supernatants were assayed for TNF by ELISA or HMGB1 by western blotting.
# (§2) Concentrations of TNF and IL-6 were each determined using a commercially available enzyme-linked immunosorbent assay (ELISA) kit (R&D System Inc.) as previously described.[34] The levels of TNF or IL-6 were calculated with reference to standard curves.
# Fig. 2 Cytokine-induced TNF release inhibited by MECO-1. a Lipopolysaccharide (LPS), derived from the cell wall of Gram-negative bacteria, is a TLR4 and TLR2 agonist. RAW 264.7 cells were treated with MECO-1 and LPS simultaneously and incubated overnight. Supernatants were tested for TNF with ELISA. b Poly I:C, synthetic double stranded RNA, is recognized by TLR3. RAW 264.7 cells were pre-treated with MECO-1 and then stimulated with Poly I:C. Supernatants were tested in ELISA by TNF. c Peptidoglycan (PGN), another TLR2 agonist, is ubiquitous in the cell wall of bacteria. RAW 264.7 cells were pre-treated with MECO-1 and then stimulated with PGN; after overnight stimulation, supernatants were harvested and tested for TNF ELISA. d HMGB-1. Each vertical bar is the mean of three experimental points, using HMGB-1 to induce TNF release. Three sets of three experiments were used for the measurement of inhibition
# Fig. 5 a Bioactive analogues of MECO-1. Murine macrophage-like RAW 264.7 cells were incubated with lipopolysaccharide (LPS, 4 ng/ml) in the absence or presence of MECO-1 or BACTN or BACFR, synthetic peptides based on the C-termini of EF-G of Bacteroides thetaiotamicron and Bacteroides fragilis. EFG-2 refers to human mitochondrial EFG-2 (mtEFG2). For Bacteroides thetaiotamicron, we used a 38-mer consisting of residues 681–703 shown in Fig. 4c followed by 704–718 QDKLIKDFEAKQTEE. For Bacteroides fragilis, we used a 33-mer consisting of residues, 681–703 shown in Fig. 4c followed by 704–713 = QDKLIKDFES. At 6 h after stimulation, aliquots of cell-free medium were examined. In other experiments, the synthetic peptide based on human mitochondrial EF-G1 (mtEFG1) gave results indistinguishable from EF-G2 (data not shown). The precise structure of the synthetic peptides is indicated in the text (see section “Results” and Table 1). Shown is a representative experiment.
# RAW 264.7 cells [2] = assay: HMGB1-induced TNF release by RAW 264.7 macrophage-like cells; format: cell-based, murine
# Procedure: Fig. 1 MECO-1 attenuates HMGB1-induced TNF release by macrophages in culture. Murine macrophage-like RAW 264.7 cells were incubated for up to 24 h with purified recombinant HMGB1 (0.1 mg/ml) in the absence or presence of MECO-1 (Panel a), or alpha-MSH (Panel b), at 10^−10 and 10^−12 M. The levels of TNF in the culture medium were determined by ELISA and expressed as mean ± SEM of two independent experiments (in duplicate). *p < 0.05, **p < 0.01 vs. control (“HMGB1 alone”). […] In panels c and d, cells were incubated with HMGB1 for 6 h with or without MECO-1 or alpha-MSH (10^−16–10^−6 M). Data represent mean ± SEM of three independent experiments performed in duplicate. With 10^−14 M peptide, results were significant at *p < 0.05, and at 10^−12 M or more were typically **p < 0.01. In our experiments, at concentrations of MECO-1, alpha-MSH, and ACTH of around 1 nM and higher, dose response curves often reverse direction, i.e., turn upward. The reversal is more clearly seen in Fig. 2. The mechanism of the reversal is not known. (Desensitization, receptor inactivation, receptor internalization, and dissociation of dimeric receptors are all plausible candidates.) As a result, the shape of the lower part of the curve and the actual inflection point may vary from experiment to experiment. This feature may be missed when results of several experiments are combined
# as §1, §2
# Fig. 3 Antibody to MC1R blocks suppressant effect of MECO-1 and alpha-MSH. Murine macrophage-like RAW 264.7 cells were pretreated with specific antibodies (“anti-MC1R Ab”) against melanocortin-1 receptor (MC1R) for 10 min prior to addition of HMGB1 in the absence or presence of MECO-1 or alpha-MSH at 10^−12 M. At 6 h, the TNF content of the cell-free medium was determined by ELISA, and expressed as mean ± SEM of two independent experiments performed in duplicate. ACTH at the same concentration gave results that were indistinguishable from those of alpha-MSH and MECO-1 (data not shown)
# [3] = system: human peripheral blood mononuclear cells (PBMC); assay: HMGB1-induced TNF release by human PBMC-derived macrophages; format: cell-based; conditions: differentiated human macrophages; HMGB1 6 hours; ELISA; three independent experiments in duplicate
# Procedure: Human PBMC were isolated by density gradient through Ficoll-Paque^TM PLUS centrifugation (Amersham Pharmacia Biotech), and suspended in RPMI 1640 containing 10% (vol/vol) heat-inactivated human serum (BioWhittaker Inc.), penicillin 100 U/ml, and streptomycin 100 μg/ml, and incubated at 37 °C in a humidified incubator with 5% CO2 atmosphere overnight. Non-adherent cells were discarded. Adherent monocytes were washed twice with PBS and were then suspended in 12-well and 24-well tissue culture plates and incubated in the same medium but now enriched with 2.5 ng/ml macrophage colony-stimulating factor for 5–7 days.[33] […]
# as §2
# Human peripheral blood mononuclear cells (PBMC) were isolated by density gradient centrifugation through Ficoll-PaqueTM PLUS, and cultured for 5-7 days in medium containing macrophage colony-stimulating factor (2.5 ng/ml). […] The content of TNF in the cell-free medium was determined by ELISA and expressed as mean ± SEM of three independent experiments performed in duplicate. *p< 0.05, **p< 0.01 vs. control (=HMGB1 alone without added melanocortin peptide).
# RAW 264.7 cells [4] = assay: LPS-induced HMGB1 release by RAW 264.7 cells (western blot); format: cell-based, murine; conditions: LPS 100 ng/ml, peptide 10^-10 M, 16-20 hrs, four independent experiments, P < 0.01
# Procedure: Murine macrophage-like RAW 264.7 cells were obtained from American Type Culture Collection, and were grown in Dulbecco’s Modified Eagle’s Medium (DMEM, Life Technologies) containing 10% (vol/vol) heat-inactivated fetal bovine serum (FBS, Hyclone Lab. Inc.), penicillin 100 U/ml, and streptomycin 100 μg/ml (BioWhittaker Inc.). Cells were suspended in medium and incubated in 24-well or 48-well tissue-culture plates overnight in a humidified incubator (37 °C, 5% CO2). Growth medium was removed and replaced by Opti-MEM I serum-free medium (Life Technologies) overnight. […]
# The levels of HMGB1 in the culture medium or murine serum were measured by western immunoblotting as previously described.[30] […] The relative band intensity was quantified by using the NIH image 1.59 software. The levels of HMGB1 (expressed as % maximum effect) were calculated with reference to standard curves generated with purified rHMGB1 and expressed as mean ± SEM of four experiments.
# Murine macrophage-like RAW 264.7 cells were incubated with LPS (100 ng/ml) in the absence or presence of MECO-1 or alpha-MSH at 10^-10 M. At 16-20 hrs after stimulation, aliquots of cell-free medium were examined. HMGB1 levels in the (conditioned) culture medium were expressed as mean ± SEM of four independent experiments with the peak level (obtained with LPS) set at 100%. […]
compound,measurement,setting,value
Mouse agouti (93-132)-NH2,effect of agouti on attenuation by MECO-1 and alpha-MSH of LPS-induced TNF release,RAW 264.7 cells [1],reversed the attenuation
O=S(=O)(NCCNC/C=C/c1ccc(Br)cc1)c1cccc2cnccc12 [H89],effect of H89 on peptide-mediated reduction of HMGB1-induced TNF accumulation,"RAW 264.7 cells [2]; H89 1mM added 10 minute before, peptides 10^-10 M, 6h, two independent experiments in duplicate",abrogated the effects of the three peptides
"adrenocorticotropin (SYSMEHFRWGKPVGKKRRPVKVYPNGAEDESAEAFPLEF; Corticotropin; UniProt P01189 138-176, looked up) [ACTH, mammalian melanocortin hormone ACTH (1-39), purchased from Bachem]",attenuation of HMGB-1-induced TNF release,[3],very similar results
same,suppression of HMGB-1-induced TNF release,"RAW 264.7 cells [2]; RAW 264.7 cells, data not shown","highly significant suppression, typically in the subpicomolar range"
same,TNF accumulation with HMGB1 on co-incubation with peptide,RAW 264.7 cells [2]; peptide 10^−12–10^−8 M,substantially reduced
same,LPS-induced HMGB-1 secretion,RAW 264.7 cells [4],indistinguishable from MECO-1 and alpha-MSH
